Active and inactive are the calls of the source. Rule as the data show it: actives have a measured IC50 and inactives only a lower limit.
target: Envelope glycoprotein gp160 (Human immunodeficiency virus 1, UniProt Q6QLK5); assay: cell-free HIV fusion peptide-binding blockers – biochemical, uHTS, fluorescence dequenching, […] (AID 1986)
Sequence (Q6QLK5 whole entry, the tested form may be a part): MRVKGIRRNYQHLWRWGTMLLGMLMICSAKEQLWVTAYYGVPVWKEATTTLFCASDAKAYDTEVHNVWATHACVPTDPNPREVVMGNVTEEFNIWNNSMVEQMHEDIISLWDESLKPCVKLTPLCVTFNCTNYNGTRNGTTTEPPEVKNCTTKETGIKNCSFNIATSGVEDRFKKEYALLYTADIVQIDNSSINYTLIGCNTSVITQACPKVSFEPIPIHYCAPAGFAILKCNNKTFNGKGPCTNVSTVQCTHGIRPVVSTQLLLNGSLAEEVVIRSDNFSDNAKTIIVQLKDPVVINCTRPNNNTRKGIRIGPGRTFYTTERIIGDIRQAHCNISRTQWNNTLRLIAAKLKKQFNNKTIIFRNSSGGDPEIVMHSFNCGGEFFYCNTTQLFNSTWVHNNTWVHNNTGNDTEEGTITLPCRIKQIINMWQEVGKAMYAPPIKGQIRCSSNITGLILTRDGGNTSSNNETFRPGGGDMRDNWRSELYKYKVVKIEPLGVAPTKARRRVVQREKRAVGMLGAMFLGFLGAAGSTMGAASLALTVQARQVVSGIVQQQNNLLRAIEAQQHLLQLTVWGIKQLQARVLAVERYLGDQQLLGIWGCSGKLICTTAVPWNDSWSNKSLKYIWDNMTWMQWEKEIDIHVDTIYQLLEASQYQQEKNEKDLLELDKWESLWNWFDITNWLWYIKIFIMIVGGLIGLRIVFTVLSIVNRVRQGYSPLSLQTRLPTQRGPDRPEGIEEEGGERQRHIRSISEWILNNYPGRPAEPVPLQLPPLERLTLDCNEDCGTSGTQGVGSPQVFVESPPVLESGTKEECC

SMILES	IC50
O=C(O)CSc1ncnc2c1sc1nc(-c3ccccc3)c3c(c12)CCC3	28 µM (active)
O=C(O)COc1ccc(/C=C/C(=O)c2ccc(C3CCCCC3)cc2)cc1	17.7 µM (active)
CS(=O)(=O)C1=NSC2=NC(=O)/C(=C\c3ccc(OS(=O)(=O)c4ccccc4)cc3)C(=N)N21	18.2 µM (active)
COc1cc(/C=C2/SC(=S)N(CC(=O)O)C2=O)ccc1OCC(=O)Nc1ccc(C)c(C)c1	17.9 µM (active)
COc1ccc(/N=C2\S/C(=C\c3ccc(OC(C)C(=O)O)c(OC)c3)C(=O)N2CCc2c[nH]c3ccccc23)cc1 (stereo not given)	18.9 µM (active)
